Each structure is given as a SMILES string.

The term Kd denotes the concentration at which binding is half-saturated.

For assay [1], the target named is T1, swine growth hormone secretagogue receptor (Type I, clone 7-3) (Sus scrofa, UniProt Q95254). Put plainly: 35S-Compound A binding assay, membranes of COS-7 cells transfected with clone 7-3.
A further assay concerns the target T2, rat GHSR type Ia (Rattus norvegicus, UniProt O08725).
T2 construct: Met-1 to Val-260 with EcoRI (5′) and HpaI (3′) restriction sites appended, while a carboxyl-terminal fragment was generated from Lys-261 to Thr-364; expressed in transfected cells; host or cells: 293-AEQ17 (HEK-293 aequorin reporter line), transient lipofectamine transfection of the pSV7 ORF construct
Put plainly: aequorin bioluminescence in transfected 293-AEQ17 reporter cells. Particulars: rat GHSR ORF construct in 293-AEQ17 cells; three replicate samples (FIG. 26). The format is cell-based. The procedure:
Functional activity of the ORF construct was assessed by transfecting (using lipofectamine; GIBCO/BRL) […] of plasmid DNA into the aequorin expressing reporter cell line (293-AEQ17) cultured in 60 mm dishes. Following approximately 40 hours of expression the aequorin in the cells was charged for 2 hours with coelenterazine, the cells were harvested, washed and pelleted by low speed centrifugation into luminometer tubes. Functional activity was determined by measuring Compound A dependent mobilization of intracellular calcium and concomitant calcium induced aequorin bioluminescence.

Assay [2] has as its target T1, swine growth hormone secretagogue receptor (Type I, clone 7-3). The assay can be described thus: aequorin bioluminescence assay in Xenopus oocytes. The format is cell-based. The arrangement: bioluminescence response: dose or concentration left out as unconfirmed. The method, then:
(§1) Xenopus laevis oocytes were isolated and injected using standard methods previously described by Arena, et al., 1991, Mol. Pharmacol. 40, 368-374, which is hereby incorporated by reference. Adult female Xenopus laevis frogs (purchased from Xenopus One, Ann Arbor, Mich.) were anesthetized with 0.17% tricaine methanesulfonate and the ovaries were surgically removed and placed in a 60 mm culture dish (Falcon) containing OR-2 medium without calcium (82.5 mM NaCl, 2 mM KCl, 2.5 mM sodium pyruvate, 1 mM MgCl2, […] penicillin, 1 mg/ml streptomycin, 5 mM HEPES, pH=7.5; ND-96 from Specialty Media, N.J.). Ovarian lobes were broken open, rinsed several times, and oocytes were released from their sacs by collagenase A digestion (Boehringer-Mannheim; 0.2% for 2-3 hours at 18° C.) in calcium-free OR-2. […]
(§2) The ABA requires injection of library pool cRNA (25 ng/egg for pool sizes of 500 to 10,000) with aequorin cRNA (2 ng/egg) supplemented with the G-protein alpha subunit Ga11 (2 ng/egg). […] Polymerase chain reaction (PCR) was utilized to generate a DNA fragment corresponding to the open reading frame (ORF) of the aequorin cDNA with an optimized Kosak translational initiation sequence (Inouye, S. et. ul., 1985, Proc. Natl. Acad. Sci. USA 82:3154-3158). […]

The target in assay [3] is T3, human growth hormone secretagogue receptor (Type I) (Homo sapiens, UniProt Q92847).
T3 construct: expressed in transfected cells; host or cells: Xenopus laevis oocytes injected with cRNA, together with aequorin and G-alpha-11 cRNA
T3 sequence (Q92847 whole entry): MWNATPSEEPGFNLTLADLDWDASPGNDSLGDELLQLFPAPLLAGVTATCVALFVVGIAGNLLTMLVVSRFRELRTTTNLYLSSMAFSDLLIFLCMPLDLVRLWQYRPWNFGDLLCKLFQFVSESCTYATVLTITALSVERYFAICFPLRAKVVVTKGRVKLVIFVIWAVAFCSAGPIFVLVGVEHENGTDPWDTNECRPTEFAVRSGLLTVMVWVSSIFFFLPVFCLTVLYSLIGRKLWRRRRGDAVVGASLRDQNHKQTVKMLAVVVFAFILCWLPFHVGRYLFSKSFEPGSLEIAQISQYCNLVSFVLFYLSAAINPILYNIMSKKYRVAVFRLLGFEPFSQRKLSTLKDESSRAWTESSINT
The assay can be described thus: aequorin bioluminescence assay in Xenopus oocytes. Format: cell-based. Particulars: human Type I cRNA expressed in oocytes; responded to concentrations ranging from 1 mM to as low as 0.1 nM. The method, then:
as §1, §2

T1 sequence (Q95254 65-366): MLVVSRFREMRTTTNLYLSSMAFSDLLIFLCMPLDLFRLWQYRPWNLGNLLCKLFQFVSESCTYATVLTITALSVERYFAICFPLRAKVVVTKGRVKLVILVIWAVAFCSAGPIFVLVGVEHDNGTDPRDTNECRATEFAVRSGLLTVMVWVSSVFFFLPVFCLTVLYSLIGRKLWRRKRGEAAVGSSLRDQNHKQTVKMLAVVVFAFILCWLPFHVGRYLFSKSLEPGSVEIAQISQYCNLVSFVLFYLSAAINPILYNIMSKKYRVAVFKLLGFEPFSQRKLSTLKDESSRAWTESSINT
T2 sequence (O08725 whole entry, the tested form may be a part): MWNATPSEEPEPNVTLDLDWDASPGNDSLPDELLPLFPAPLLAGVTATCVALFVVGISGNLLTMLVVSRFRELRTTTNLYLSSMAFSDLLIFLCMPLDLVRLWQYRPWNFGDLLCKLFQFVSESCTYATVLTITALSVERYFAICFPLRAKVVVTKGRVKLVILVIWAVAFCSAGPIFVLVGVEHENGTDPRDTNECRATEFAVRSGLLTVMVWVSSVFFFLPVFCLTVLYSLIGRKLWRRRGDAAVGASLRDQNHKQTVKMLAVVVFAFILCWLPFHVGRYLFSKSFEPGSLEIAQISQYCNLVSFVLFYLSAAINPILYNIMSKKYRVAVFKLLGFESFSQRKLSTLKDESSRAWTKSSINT

Regarding `CC(C)(N)C(=O)N[C@H](COCc1ccccc1)C(=O)N1CCC2(CC1)CN([35S](C)(=O)=O)c1ccccc12` [^35S-Compound A], the Kd in assay [1] was about 0.2 nM. This compound displayed a Bmax in assay [1] (clone 7-3 expressed transiently in COS-7 cells, saturable binding) of about 80 fmol/mg protein.
Turning to `CC(C)(N)C(=O)N[C@H](COCc1ccccc1)C(=O)N1CCC2(CC1)CN(S(C)(=O)=O)c1ccccc12` [Compound A], the “luminescent response (mobilization of intracellular calcium)” value at rat GHSR type Ia was “luminescent responses”. Moreover, in assay [2] (oocytes injected with cRNA of clones 7-3 and 28-18), the bioluminescence response result is on record as “positive bioluminescence response”. Moreover, the “lowest Compound A concentration giving a response” value in assay [2] (swine Type I cRNA expressed in oocytes, responded to concentrations ranging from 1 mM to as low as 0.1 nM) worked out at 0.1 nM; in assay [3] it was 0.1 nM.

These data come from patent publication US6531314B1, “Growth hormone secretagogue receptor family” (Merck & Co., Inc., priority 1998, dated 2003).
